Assay results taken from patent US6737383B1, “Herbicidal oxadiazolidines” (priority 1999, dated 2004).

How the values were obtained:
surinam grass = assay: Test B pre/postemergence surinam grass; assay type: in vivo, Brachiaria decumbens
Summary of the method: (§1)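 Test chemicals in a non-phytotoxic solvent mixture with surfactant were sprayed preemergence onto planted seeds and postemergence onto plants 2 to 18 cm tall (1- to 4-leaf stage). After twelve to sixteen days in a greenhouse, injury was visually rated against untreated controls from 0 (no effect) to 10 (complete control).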

giant foxtail = assay: Test B pre/postemergence giant foxtail; assay type: in vivo, Setaria faberii
Summary of the method: as §1

velvetleaf = assay: Test B pre/postemergence velvetleaf; assay type: in vivo, Abutilon theophrasti
Summary of the method: as §1

wild oat = assay: Test B pre/postemergence wild oat; assay type: in vivo, Avena fatua
Summary of the method: as §1

bamyardgrass = assay: Test B flood test barnyardgrass; assay type: in vivo, Echinochloa crus-galli
Summary of the method: (§2)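 Flood test on plants grown to the 2-leaf stage; treated plants kept in greenhouse twelve to sixteen days, then visually rated against controls on a 0 (no effect) to 10 (complete control) scale.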

rice = assay: Test B flood test rice; assay type: in vivo, Oryza sativa
Summary of the method: as §2

smallflower flatsedge = assay: Test B flood test smallflower flatsedge; assay type: in vivo, Cyperus difformis
Summary of the method: as §2

rape = assay: Test B pre/postemergence rape; assay type: in vivo, Brassica napus
Summary of the method: as §1

sugar beet = assay: Test B pre/postemergence sugar beet; assay type: in vivo, Beta vulgaris
Summary of the method: as §1

bedstraw = assay: Test B pre/postemergence bedstraw; assay type: in vivo, Galium aparine; conditions: for Plant response rating, Bedstraw: Postemergence
Summary of the method: as §1

purple nutsedge = assay: Test B pre/postemergence purple nutsedge; assay type: in vivo, Cyperus rotundus
Summary of the method: as §1

blackgrass = assay: Test B pre/postemergence blackgrass; assay type: in vivo, Alopecurus myosuroides
Summary of the method: as §1

crabgrass = assay: Test B pre/postemergence crabgrass; assay type: in vivo, Digitaria sanguinalis
Summary of the method: as §1

corn = assay: Test B pre/postemergence corn; assay type: in vivo, Zea mays
Summary of the method: as §1

wheat = assay: Test B pre/postemergence wheat; assay type: in vivo, Triticum aestivum
Summary of the method: as §1

duck salad = assay: Test B flood test duck salad; assay type: in vivo, Heteranthera limosa
Summary of the method: as §2

[1] = Postemergence, Rate 62 g/ha, scale 0 to 10, 0 is no effect, 10 is complete control
[2] = Postemergence, Rate 125 g/ha, scale of 0 to 10 where 0 is no effect and 10 is complete control
[3] = Postemergence, Rate 250 g/ha, scale of 0 to 10, 0 is no effect, 10 is complete control
[4] = Postemergence, Rate 500 g/ha, scale of 0 to 10 where 0 is no effect and 10 is complete control
[5] = Preemergence, Rate 62 g/ha, scale 0 to 10 (0 no effect, 10 complete control)
[6] = Preemergence, Rate 125 g/ha, scale of 0 to 10 where 0 is no effect and 10 is complete control
[7] = Preemergence, Rate 500 g/ha, scale of 0 to 10 where 0 is no effect and 10 is complete control
[8] = Rate 62 g/ha, flood test species, Pre-emergence, visual evaluation after twelve to sixteen days
[9] = Rate 125 g/ha, under heading Pre-emergence, flood test species, visual evaluation after twelve to sixteen days
[10] = Rate 250 g/ha, Pre-emergence (flood test species), scale 0 to 10, 0 is no effect, 10 is complete control
[11] = Rate 500 g/ha, Pre-emergence section of Table B, 0 to 10 scale (0 no effect, 10 complete control)

C#CC(C)n1c(=O)on(C(=O)N(c2ccccc2)C(C)C)c1=O (stereo not shown) [Compound 609]
Plant response rating, B. signalgrass (surinam grass; [1]): 0
Plant response rating, B. signalgrass (surinam grass; [2]): 1
B. signalgrass plant response rating (surinam grass; [3]): 5
Plant response rating, B. signalgrass (surinam grass; [4]): 8
B. signalgrass plant response rating (surinam grass; [5]): 3
B. signalgrass plant response rating (surinam grass; [6]): 6
B. signalgrass plant response rating (0 to 10 scale, 0 is no effect, 10 is complete control) (surinam grass; Preemergence, Rate 250 g/ha): 9
B. signalgrass plant response rating (surinam grass; [7]): 10
Plant response rating, Giant foxtail (giant foxtail; [1]): 6
Plant response rating, Giant foxtail (giant foxtail; [2]): 9
Giant foxtail plant response rating (giant foxtail; [3]): 9
Plant response rating, Giant foxtail (giant foxtail; [4]): 9
Giant foxtail plant response rating (giant foxtail; [5]): 10
Giant foxtail plant response rating (giant foxtail; [6]): 10
Plant response rating, Giant foxtail (giant foxtail; [7]): 10
Plant response rating, Velvetleaf (velvetleaf; [1]): 3
Plant response rating, Velvetleaf (velvetleaf; [2]): 3
Velvetleaf plant response rating (velvetleaf; [3]): 7
Plant response rating, Velvetleaf (velvetleaf; [4]): 8
Velvetleaf plant response rating (velvetleaf; [5]): 7
Velvetleaf plant response rating (velvetleaf; [6]): 8
Plant response rating, Velvetleaf (velvetleaf; [7]): 9
Plant response rating, Wild oats (wild oat; [1]): 0
Plant response rating, Wild oats (wild oat; [2]): 0
Wild oats plant response rating (wild oat; [3]): 0
Plant response rating, Wild oats (wild oat; [4]): 4
Wild oats plant response rating (wild oat; [5]): 3
Wild oats plant response rating (wild oat; [6]): 7
Plant response rating, Wild oats (wild oat; [7]): 10
Plant response rating, Barnyardgrass (0 to 10 scale, 0 is no effect, 10 is complete control) (bamyardgrass; [8]): 0
Barnyardgrass plant response rating (0 to 10 scale, 0 is no effect, 10 is complete control) (bamyardgrass; [9]): 0
Barnyardgrass plant response rating (bamyardgrass; [10]): 0
Barnyardgrass plant response rating (bamyardgrass; [11]): 0
Plant response rating, Rice (0 to 10 scale, 0 is no effect, 10 is complete control) (rice; [8]): 0
Rice plant response rating (0 to 10 scale, 0 is no effect, 10 is complete control) (rice; [9]): 0
Rice plant response rating (rice; [10]): 0
Rice plant response rating (rice; [11]): 0
Plant response rating, S. Flatsedge (0 to 10 scale, 0 is no effect, 10 is complete control) (smallflower flatsedge; [8]): 0
S. Flatsedge plant response rating (0 to 10 scale, 0 is no effect, 10 is complete control) (smallflower flatsedge; [9]): 0
S. Flatsedge plant response rating (smallflower flatsedge; [10]): 0
S. Flatsedge plant response rating (smallflower flatsedge; [11]): 0
Plant response rating, Rape (rape; [1]): 0
Plant response rating, Rape (rape; [2]): 0
Rape plant response rating (rape; [3]): 1
Plant response rating, Rape (rape; [4]): 3
Rape plant response rating (rape; [5]): 0
Rape plant response rating (rape; [6]): 0
Plant response rating, Rape (rape; [7]): 10
Plant response rating, Sugarbeets (sugar beet; [1]): 0
Plant response rating, Sugarbeets (sugar beet; [2]): 0
Sugarbeets plant response rating (sugar beet; [3]): 0
Plant response rating, Sugarbeets (sugar beet; [4]): 1
Sugarbeets plant response rating (sugar beet; [5]): 0
Sugarbeets plant response rating (sugar beet; [6]): 3
Plant response rating, Sugarbeets (sugar beet; [7]): 8
Plant response rating, Bedstraw (bedstraw; Rate 62 g/ha, scale 0 to 10, 0 is no effect, 10 is complete control): 0
Plant response rating, Bedstraw (bedstraw; Rate 125 g/ha, scale of 0 to 10 where 0 is no effect and 10 is complete control): 0
Bedstraw plant response rating (bedstraw; [5]): 4
Bedstraw plant response rating (bedstraw; [6]): 8
Bedstraw plant response rating (0 to 10 scale) (bedstraw; Preemergence, Rate 250 g/ha): 8
Plant response rating, Nutsedge (purple nutsedge; [1]): 0
Plant response rating, Nutsedge (purple nutsedge; [2]): 0
Nutsedge plant response rating (purple nutsedge; [3]): 0
Plant response rating, Nutsedge (purple nutsedge; [4]): 6
Nutsedge plant response rating (purple nutsedge; [5]): 0
Nutsedge plant response rating (purple nutsedge; [6]): 0
Plant response rating, Nutsedge (purple nutsedge; [7]): 4
Plant response rating, Blackgrass (blackgrass; [1]): 5
Plant response rating, Blackgrass (blackgrass; [2]): 8
Blackgrass plant response rating (blackgrass; [3]): 8
Plant response rating, Blackgrass (blackgrass; [4]): 8
Blackgrass plant response rating (blackgrass; [5]): 7
Blackgrass plant response rating (blackgrass; [6]): 8
Blackgrass plant response rating (0 to 10 scale) (blackgrass; Preemergence, Rate 250 g/ha): 9
Blackgrass plant response rating (blackgrass; [7]): 10
Plant response rating, Crabgrass (crabgrass; [1]): 5
Plant response rating, Crabgrass (crabgrass; [2]): 9
Crabgrass plant response rating (crabgrass; [3]): 9
Crabgrass plant response rating (crabgrass; [5]): 7
Crabgrass plant response rating (crabgrass; [6]): 7
Plant response rating, Crabgrass (crabgrass; [7]): 9
Plant response rating, Corn (corn; [1]): 0
Plant response rating, Corn (corn; [2]): 0
Corn plant response rating (corn; [3]): 2
Plant response rating, Corn (corn; [4]): 7
Corn plant response rating (corn; [5]): 2
Corn plant response rating (corn; [6]): 2
Corn plant response rating (0 to 10 scale) (corn; Preemergence, Rate 250 g/ha): 6
Plant response rating, Corn (corn; [7]): 9
Plant response rating, Wheat (wheat; [1]): 0
Plant response rating, Wheat (wheat; [2]): 0
Wheat plant response rating (wheat; [3]): 2
Plant response rating, Wheat (wheat; [4]): 6
Wheat plant response rating (wheat; [5]): 0
Wheat plant response rating (wheat; [6]): 0
Plant response rating, Wheat (wheat; [7]): 6
Plant response rating, Ducksalad (0 to 10 scale, 0 is no effect, 10 is complete control) (duck salad; [8]): 0
Ducksalad plant response rating (0 to 10 scale, 0 is no effect, 10 is complete control) (duck salad; [9]): 0
Ducksalad plant response rating (duck salad; [10]): 0
Ducksalad plant response rating (duck salad; [11]): 0
